Reference: patent publication US10349659B2, “Plant disease control composition and plant disease control method” (SUMITOMO CHEMICAL COMPANY, LIMITED, priority 2015, dated 2019)

Tests used:
wheat leaf blight fungus = assay: Test Example 3: growth of wheat leaf blight fungus in YBG medium, microtiter plate; type: cell-based, Mycosphaerella graminicola; settings: 18° C., six days, absorbance 550 nm
Protocol: The present compound 1 or the present compound 2-1 was dissolved into dimethyl sulfoxide such that each concentration of the present compound 1 or the present compound 2-1 was adjusted to one hundred fifty times as much as the concentration indicated in the below-mentioned Table 5. The resultant agent solution was dispensed into a microtiter plate (with 96 wells) in 1 μl portion thereof per well. One hundred forty nine (149) μl of YBG medium (which was prepared by dissolving 10 g of yeast extract, 10 g of Bacto Peptone, and 20 mL of glycerol into 1 L of water, followed by sterilizing the medium) was dispensed into the wells to which the agent solution(s) was/were dispensed. The plate was cultivated at 18° C. for six days, thereby allowing wheat leaf blight fungus to undergo proliferation, and the absorbance at 550 nm of each well of the micro titer plate was then measured to examine a degree of growth of the wheat leaf blight fungus (hereinafter referred to as “treated group”).
Whereas, wheat leaf blight fungus was proliferated similarly to the case of the treated group except that dimethyl sulfoxide was used instead of the agent solution, and the degree of the growth was examined (hereinafter referred to as “untreated group”). The efficacy was calculated from the respective obtained degree of growth by the below-mentioned “Equation 1”. […]

[1] = test system: wheat rust fungus (Puccinia recondita); assay: Test Example 4: foliar spray of flowable formulations on wheat, wheat rust lesion area; type: in vivo; settings: foliar spray on wheat one day before inoculation, lesion area after ten days at 23° C.
Protocol: Five (5) parts of the present compound 1, 35 parts of a mixture of white carbon and ammonium polyoxyethylene alkyl ether sulfate (the weight ratio of 1:1) and […] of water were mixed, and the mixture was then finely-ground by a wet grinding method to obtain a flowable formulation comprising the present compound 1. Separately, the flowable formulation comprising the present compound 2-1 was prepared according to the above-mentioned similar method except that the present compound 2-1 was used instead of the present compound 1 to form a flowable formulation comprising the present compound 2-1.
Each of the above-mentioned respective flowable formulations, and the flowable formulation comprising the present compound 1 and the present compound 2-1 that was prepared according to the above-mentioned Formulation Example 3 was diluted with water such that each concentration of the respective compounds in the dilution solutions was adjusted to that indicated in Table 6, to prepare the dilution solutions, respectively.
A plastic pot was filled with soil, and thereto wheat (cultivar. Shirogane) was seeded, and the plants were grown in a greenhouse for ten days. […]
From each of the lesion area of the treated group and the untreated group, respectively, the efficacy of the treated group was calculated by the below-mentioned Equation 2. […]

With `CC1CC(C)(C)c2cccc(NC(=O)c3cn(C)nc3C(F)F)c21` (stereo not shown) [Present compound 1] the “Efficacy (%)” value (wheat leaf blight fungus; concentration in medium 0.005 ppm) was 15%, the “Efficacy (%)” value (wheat leaf blight fungus; concentration in medium 0.1 ppm) was 70% and the “Efficacy (%)” value ([1]; 0.0005 ppm) was 56%. For the same molecule, the “Efficacy (%)” value ([1]; 0.01 ppm) was 68%.
